From paper PMC5690597, “Suppression and resolution of autoimmune arthritis by rhesus θ-defensin-1, an immunomodulatory macrocyclic peptide” (PLoS ONE, 2017)
Bridge positions count the residues as written; N and C are the ends. Peptide text beside a SMILES is read from it.

Tests used:
MMP-1 = MMP-1 (Homo sapiens, UniProt P03956); assay: biochemical
Experimental: (§1) Inhibition of MMPs by RTD-1 was performed as described, incubating each enzyme with 0–100 μg/ml of RTD-1. IC50 values were calculated by GraphPad Prism 5.01 (GraphPad Software, San Diego, CA) utilizing a non-linear curve fit of log [inhibitor] versus response with variable slope.

MMP-8 = MMP-8 (Homo sapiens, UniProt P22894); assay: biochemical
Chain of MMP-8 (P22894 101-467, species assumed): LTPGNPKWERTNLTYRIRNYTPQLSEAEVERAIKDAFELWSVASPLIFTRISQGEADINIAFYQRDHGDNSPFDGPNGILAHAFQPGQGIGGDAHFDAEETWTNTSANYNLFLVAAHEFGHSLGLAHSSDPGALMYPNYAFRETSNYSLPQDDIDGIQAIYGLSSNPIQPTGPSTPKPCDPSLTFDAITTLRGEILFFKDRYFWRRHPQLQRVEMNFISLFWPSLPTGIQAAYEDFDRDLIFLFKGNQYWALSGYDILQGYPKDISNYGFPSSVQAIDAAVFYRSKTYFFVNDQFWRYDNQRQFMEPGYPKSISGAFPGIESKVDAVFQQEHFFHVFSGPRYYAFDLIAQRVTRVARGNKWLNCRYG
Experimental: as §1

DA-PIA-FLS = assay: FLS proliferation (CyQuant); assay type: cell-based, DA rat; conditions: RTD-1 0–30 μg/ml; 24 or 48 h in culture; DNA staining
Experimental: Fibroblast-like synoviocytes (FLS) were isolated by enzymatic digestion of the synovial tissue from DA rats with PIA as previously described. Cells were washed and suspended in DMEM supplemented with 10% fetal bovine serum (Gibco, Grand Island, NY), 30 mg/ml L-glutamine (Sigma), 250 μg/ml amphotericin B (Sigma), and […] gentamicin (Gibco). After overnight culture, non-adherent cells were removed and adherent cells were cultured to approximately 70–90% confluence and passaged following detachment with 0.25% trypsin-EDTA for 3 min at 37°C. All experiments were performed with FLS after at least four passages.
All assays were performed with ≥ 7 replicates.

joint IL-1β = assay: Joint tissue cytokine analysis (IL-1β ELISA); assay type: in vivo, rat; conditions: 5 mg/kg s.c. once a day for four days, PIA rats AS ≥ 3; ELISA of joint extract; P = 0.0054
Experimental: Saline (control) and RTD-1 (5 mg/kg, s.c., qd) treated PIA rats were euthanized 4 days after disease onset (AS ≥ 3). The ankle joints and feet were snap frozen in liquid N2 and pulverized with mortar and pestle as described. One gram of tissue powder was extracted with 5 ml of ice cold 10 mM sodium phosphate, 150 mM NaCl, pH 7.4 (PBS) containing protease inhibitor tablets (cOmplete ULTRA with EDTA; Roche Diagnostics GmbH, Mannheim, Germany). Samples were vortexed for 30 seconds and extracts clarified by centrifugation. Supernatant IL-1β was quantified by ELISA (Life Technologies, Grand Island, NY).

Chain of MMP-1 (P03956 100-469, species assumed): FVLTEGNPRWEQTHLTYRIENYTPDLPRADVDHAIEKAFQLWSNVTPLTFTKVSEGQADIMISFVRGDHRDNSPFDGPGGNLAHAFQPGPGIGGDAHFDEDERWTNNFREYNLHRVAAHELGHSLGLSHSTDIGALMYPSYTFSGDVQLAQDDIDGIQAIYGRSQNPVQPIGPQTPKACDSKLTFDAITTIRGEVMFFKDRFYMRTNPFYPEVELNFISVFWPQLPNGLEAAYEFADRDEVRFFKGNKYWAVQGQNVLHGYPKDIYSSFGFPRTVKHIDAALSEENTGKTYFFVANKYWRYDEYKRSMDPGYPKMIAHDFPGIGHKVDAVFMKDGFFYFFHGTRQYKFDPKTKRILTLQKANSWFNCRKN

Compound: CC[C@H](C)[C@@H]1NC(=O)[C@@H]2CSSC[C@H](NC(=O)[C@H](CCCNC(=N)N)NC(=O)[C@@H]3CSSC[C@H](NC1=O)C(=O)N[C@@H]([C@@H](C)O)C(=O)N[C@@H](CCCNC(=N)N)C(=O)NCC(=O)N[C@@H](Cc1ccccc1)C(=O)N3)C(=O)N[C@@H](CC(C)C)C(=O)N[C@H]1CSSC[C@H](NC(=O)[C@H](C(C)C)NC(=O)CNC(=O)[C@H](CCCNC(=N)N)NC(=O)[C@H](CCCNC(=N)N)NC1=O)C(=O)N[C@@H](CCCNC(=N)N)C(=O)N2 [RTD-1, rhesus θ-defensin 1] (cyclo(GFCRCLCRRGVCRCICTR); disulfide 3-16, 5-14, 7-12)
- IC50 (MMP-1): > 50 µM
- IC50 (MMP-8): 12 ± 0.05 µM
- effect on FLS proliferation (DA-PIA-FLS): dose-dependently suppressed FLS proliferation
- average reduction of joint IL-1β vs vehicle (joint IL-1β): 44%
